Counter-ions that a name gives are not always drawn. Like-named read-outs stand apart in the source and are kept apart here.
T1: OAT1 (Homo sapiens, UniProt Q4U2R8)
T1 sequence (Q4U2R8 1-563): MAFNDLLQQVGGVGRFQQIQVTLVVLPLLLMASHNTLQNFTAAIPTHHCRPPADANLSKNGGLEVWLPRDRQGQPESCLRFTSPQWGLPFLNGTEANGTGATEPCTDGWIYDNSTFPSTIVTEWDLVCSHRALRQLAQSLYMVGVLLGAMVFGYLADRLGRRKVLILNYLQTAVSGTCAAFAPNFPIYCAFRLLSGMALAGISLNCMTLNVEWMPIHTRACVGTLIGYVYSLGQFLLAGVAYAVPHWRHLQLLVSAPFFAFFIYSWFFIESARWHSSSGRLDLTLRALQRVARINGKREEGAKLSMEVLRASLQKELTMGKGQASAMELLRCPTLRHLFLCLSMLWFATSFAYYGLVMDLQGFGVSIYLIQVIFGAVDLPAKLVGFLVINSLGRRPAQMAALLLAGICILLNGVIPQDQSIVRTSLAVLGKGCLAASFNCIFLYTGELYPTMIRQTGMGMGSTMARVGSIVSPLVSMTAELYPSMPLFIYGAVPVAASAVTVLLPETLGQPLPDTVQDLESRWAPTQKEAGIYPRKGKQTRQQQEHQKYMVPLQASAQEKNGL

T2: OAT3 (Homo sapiens, UniProt Q8TCC7)
T2 sequence (Q8TCC7 1-542): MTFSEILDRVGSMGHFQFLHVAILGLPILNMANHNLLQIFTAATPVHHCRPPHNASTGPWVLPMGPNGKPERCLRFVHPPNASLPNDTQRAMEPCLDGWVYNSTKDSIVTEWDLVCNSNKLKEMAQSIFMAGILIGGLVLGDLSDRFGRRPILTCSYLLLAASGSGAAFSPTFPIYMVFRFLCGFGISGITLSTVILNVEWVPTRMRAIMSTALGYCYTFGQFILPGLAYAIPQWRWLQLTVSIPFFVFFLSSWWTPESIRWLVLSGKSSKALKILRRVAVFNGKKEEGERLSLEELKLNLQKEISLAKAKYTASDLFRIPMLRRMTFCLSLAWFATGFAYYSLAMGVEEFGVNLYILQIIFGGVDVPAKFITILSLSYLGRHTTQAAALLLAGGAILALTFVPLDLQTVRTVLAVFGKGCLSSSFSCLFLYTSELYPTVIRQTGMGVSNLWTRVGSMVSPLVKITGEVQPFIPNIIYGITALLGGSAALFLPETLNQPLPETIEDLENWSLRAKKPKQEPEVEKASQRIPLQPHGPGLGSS

B1: OAT3 (Homo sapiens) (protein)
chain: T2 sequence (Q8TCC7 1-542)
B2: OAT1 (Homo sapiens) (protein)
chain: T1 sequence (Q4U2R8 1-563)

Tests used:
OAT1 [1] = molecular target: T1, OAT1; experiment: Inhibition of OAT-mediated fluorescein uptake in ciPTEC-OAT1; type: cell-based; parameters: host or cells: ciPTEC (human conditionally immortalized proximal tubule epithelial cells), lentiviral transduction; conditions: for Effect on OAT-mediated fluorescein uptake (in words): ciPTEC-OAT1, fluorescein 1 μM, 10 min; for DDI index Cmax/IC50: ciPTEC-OAT1, with the second-listed (higher) Cmax
Procedure: (§1) All chemicals were obtained from Sigma, unless stated otherwise. Uptake was stopped by washing three times with ice-cold HBSS (4°C).
(§2) Non-linear regression with variable slope constraining the top to 100% was used to fit the data after background subtraction with GraphPad Prism. Statistics was performed by two-way ANOVA (two-tailed, α = 0.05) using GraphPad Prism as well. All data is presented as mean ± SEM of at least three separate experiments (n = 3) performed in triplicate, unless stated otherwise.

ciPTEC-OAT3 = experiment: MTT viability assay, ciPTEC-OAT3; type: cell-based, human; conditions: for Cell viability (MTT), concentration and time dependence: ciPTEC-OAT3, 24, 48 and 72 h
Procedure: Cell toxicity was analyzed further in presence of MRP and BCRP efflux inhibitors MK571 (5 μM) and KO143 (10 μM).

[2] = parameters: method as in PMID 19445515; conditions: cited from earlier work
hOAT1-CHO and HEK-OAT1 = conditions: cited from earlier work
OAT1 [3] = molecular target: T1, OAT1; parameters: method as in PMID 23856525; conditions: substrate PAH, HeLa-OAT1; read-out: IC50 (literature); cited from earlier work
[4] = MTT viability assay, ciPTEC-OAT1; type: cell-based, human; conditions: human, ciPTEC-OAT1 cells (monolayers, 96-well); for IC50 at 24 h: read-out: IC50 on cell viability (MTT), 24 h; for IC50 at 72 h: read-out: IC50 on cell viability (MTT), 72 h
ciPTEC-OAT1 = experiment: MTT viability assay, ciPTEC-OAT1; type: cell-based, human; conditions: for Cell viability (MTT): ciPTEC-OAT1, 1 mM, 48 h, serum-free medium; for Cell viability (MTT), concentration and time dependence: ciPTEC-OAT1, 24, 48 and 72 h
[5] = plasma, maximal free plasma concentration, 47 (zidovudine), cited from earlier work
OAT3 [6] = molecular target: T2, OAT3; conditions: substrate estrone sulfate, Xenopus-OAT3; read-out: IC50 (literature); cited from earlier work
OAT3 [7] = molecular target: T2, OAT3; experiment: Inhibition of OAT-mediated fluorescein uptake in ciPTEC-OAT3
Procedure: as §1, §2

OAT1 [8] = molecular target: T1, OAT1; experiment: OAT1-mediated fluorescein uptake kinetics in ciPTEC-OAT1; type: cell-based; parameters: host or cells: ciPTEC (human conditionally immortalized proximal tubule epithelial cells), lentiviral transduction
Procedure: as §1

OAT3 [9] = molecular target: T2, OAT3; experiment: OAT3-mediated fluorescein uptake kinetics in ciPTEC-OAT3; type: cell-based; parameters: host or cells: ciPTEC (human conditionally immortalized proximal tubule epithelial cells), lentiviral transduction; conditions: n = 4
Procedure: as §1

[10] = substrate: O=C1OC2(c3ccc(O)cc3Oc3cc(O)ccc32)c2ccccc21; experiment: cells, lysate or membranes; conditions: other: fluorescein uptake, 10 min, Michaelis-Menten with linear diffusion, mean ± SEM, n = 4; 37.0 °C
[11] = 120 h, OAT1 overexpression cells, read-out: IC50 on cell viability (literature), 120 h
[12] = read-out: IC50 on cell viability (literature), 48 h, OAT1 overexpression cells
[13] = first-listed (lower) value per drug, ref 40 (adefovir), 42 (cidofovir), 45 (tenofovir)
[14] = second-listed (higher) value per drug, ref 41 (adefovir), 43 (cidofovir), 46 (tenofovir)

Molecule | IC50 (OAT1 [1]) [µM] | Effect on OAT-mediated fluorescein uptake (in words) (OAT1 [1]) | Cell viability (MTT), concentration and time dependence (ciPTEC-OAT3) | Renal excretion of unchanged drug (in words) [2] | IC50 (hOAT1-CHO and HEK-OAT1; [11]) [µM] | IC50 (hOAT1-CHO and HEK-OAT1; [12]) [µM] | IC50 at 48 h [4] [µM] | IC50 at 24 h [4] [µM] | IC50 at 72 h [4] [µM] | Cell viability (MTT) (ciPTEC-OAT1) | Cell viability (MTT), concentration and time dependence (ciPTEC-OAT1) | Cmax [5, 13] [µM] | Cmax [5, 14] [µM] | other results
Nc1ncnc2c1ncn2CCOCP(=O)(O)O [Adefovir, adefovir] | 23 ± 4 | Concentration-dependent inhibition | less pronounced | largely excreted unchanged by the kidneys | 1.4 ± 0.7 | 0.22 ± 0.08 | 303 ± 38 | 462 ± 52 | 230 ± 37 | significantly affected cell viability | concentration- and time-dependent decrease in viability | 1.6 | 38.8 | DDI index Cmax/IC50 (OAT1 [1]): 4.2; IC50 (OAT1 [3]): 8.1 µM
Nc1ccn(C[C@@H](CO)OCP(=O)(O)O)c(=O)n1 [Cidofovir, cidofovir] | 71 ± 34 | Concentration-dependent inhibition | less pronounced | largely excreted unchanged by the kidneys | 3 ± 1 | 0.5 ± 0.2 | 130 ± 58 | 613 ± 384 | 69 ± 2 | significantly affected cell viability | concentration- and time-dependent decrease in viability | 15.8 | 26.3 | –
C[C@]12CC[C@@H]3c4ccc(OS(=O)(=O)O)cc4CC[C@H]3[C@@H]1CCC2=O [Estrone sulfate, estrone sulfate] | – | – | – | – | – | – | – | – | – | – | – | – | – | IC50 (OAT3 [6]): 3 µM; IC50 (OAT3 [7]; read-out: IC50 of fluorescein uptake, ciPTEC-OAT3, fluorescein 1 μM, 10 min, HBSS 37°C, mean ± SEM, n = 4, cimetidine: apparent IC50 due to partial inhibition): 2.1 ± 0.3 µM
O=C1OC2(c3ccc(O)cc3Oc3cc(O)ccc32)c2ccccc21 [Fluorescein, fluorescein] | – | – | – | – | – | – | – | – | – | – | – | – | – | Vmax (OAT1 [8]; fluorescein uptake, 10 min, n = 4): 695 ± 84 RFU; Fluorescein affinity for OAT1 relative to OAT3 (OAT1 [8]; from Km values of Table I): approximately fivefold higher; Kd (OAT1 [8]; passive diffusion component kd of fluorescein uptake, n = 4): 2.4 ± 1.2 RFU*L/μmol; Vmax (OAT3 [9]; fluorescein uptake, 10 min): 384 ± 103 RFU; Kd (OAT3 [9]; passive diffusion component kd of fluorescein uptake): 4.3 ± 0.9 RFU*L/μmol
Nc1ccc(C(=O)NCC(=O)O)cc1 [Para-aminohippuric acid, para-aminohippuric acid] | – | – | – | – | – | – | – | – | – | – | – | – | – | IC50 (OAT3 [7]): 152 ± 3 µM; Fluorescein uptake by flow cytometry in presence of inhibitor (OAT3 [7]; transduced ciPTEC-OAT3, fluorescein 1 μM, 10 min, inhibitor 100 μM): sensitive to para-aminohippuric acid-induce inhibition
C[C@H](Cn1cnc2c(N)ncnc21)OCP(=O)(O)O [Tenofovir, tenofovir] | 42 ± 8 | Concentration-dependent inhibition | less pronounced | largely excreted unchanged by the kidneys | 21 ± 7 | 10 ± 2 | 189 ± 48 | 114 ± 25 | 223 ± 67 | significantly affected cell viability | concentration- and time-dependent decrease in viability | 0.52 | 0.72 | DDI index Cmax/IC50 (OAT1 [1]): 0.019; Cell viability (MTT) (ciPTEC-OAT3; ciPTEC-OAT3, 1 mM, 48 h, serum-free medium): slightly decreased; IC50 (OAT1 [3]): 29.3 µM
B1 | – | – | – | – | – | – | – | – | – | – | – | – | – | Km [10]: 3.7 ± 0.5 µM
B2 | – | – | – | – | – | – | – | – | – | – | – | – | – | Km [10]: 0.8 ± 0.1 µM
